Experimental data: patent EP3076175A1, “DETECTION AND QUANTIFICATION OF O-ACETYL-ADP-RIBOSE AS A READOUT SYSTEM FOR MEASURING THE ACTIVITY OF E.G. SIRTUINS” (Boehringer Ingelheim International GmbH, priority 2015, dated 2016)
Where two headings read alike, the source gives them in different places.

How the values were obtained:
[1] = target: T1, SIRT1 (Homo sapiens, UniProt Q96EB6); assay: Macro-domain protein assay for SIRT modulators (detection of generated 2'/3'-O-acetyl-ADP-ribose, donor/acceptor beads); assay type: biochemical; settings: 10x SIRT (200 nM), 10 µM compound
T1 construct: made in house; host or cells: E. coli BL21 Star (DE3)
T1 sequence (Q96EB6 183-664): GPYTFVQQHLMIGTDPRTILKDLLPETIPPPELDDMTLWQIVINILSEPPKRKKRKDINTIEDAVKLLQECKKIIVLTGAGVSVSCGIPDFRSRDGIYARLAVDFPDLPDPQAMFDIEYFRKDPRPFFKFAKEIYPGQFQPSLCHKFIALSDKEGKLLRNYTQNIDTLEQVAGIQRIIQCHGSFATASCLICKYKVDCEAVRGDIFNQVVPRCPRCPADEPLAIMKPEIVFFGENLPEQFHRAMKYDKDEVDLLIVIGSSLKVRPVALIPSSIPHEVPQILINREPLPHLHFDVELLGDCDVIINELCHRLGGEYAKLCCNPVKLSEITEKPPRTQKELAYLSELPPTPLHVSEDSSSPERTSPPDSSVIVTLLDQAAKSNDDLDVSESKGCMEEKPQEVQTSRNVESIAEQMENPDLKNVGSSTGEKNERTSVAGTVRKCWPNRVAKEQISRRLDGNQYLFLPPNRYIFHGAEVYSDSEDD
Experimental: 200 nl of test compound in 100% DMSO (final concentration of compound 10 µM; DMSO 1%) is given in the 384-well plates by a Cybio Cybiwell capillary head pipettor.
After that 2 µl of an acetylated peptide (final concentration of 10 µM) mixed with NAD^+ (final concentration of 500 µM, dissolved in assay buffer 1) and 2 µl of SIRT enzyme (final concentration of 20 nM for 1x SIRT (100% CTL) and 200 nM for 10x SIRT (1000% CTL), dissolved in assay buffer 1) are added by a Multidrop combi. After an incubation time of 20 min at room temperature 4 µl biotinylated ADP-ribose (final concentration 50 nM, dissolved in assay buffer 2) and 4 µl GST tagged macro-domain protein (final concentration 50 nM, dissolved in assay buffer 2) are added by a Multidrop combi. After another incubation time of 60 min at room temperature 4 µl of acceptor beads and 4 µl of donor beads (final concentration of each bead-type 20 µg/ml, both dissolved in assay buffer 2) are added by a Multidrop combi. The plates are then sealed and incubated in the dark at room temperature for at least 30 min. After the incubation period, the plates are measured using the Envision reader from Perkin Elmer. […]

[2] = target: T2, GST-tagged AF1521 (Archaeoglobus fulgidus, UniProt O28751); assay: Nucleotide ligand binding assay by isothermal calorimetry (ITC); settings: for ΔG: change in Gibbs free energy of binding; for ΔS: change in entropy
T2 construct: For the N-terminal GST fusion of AF1521 the gene for residues 1-192 was synthesized; made in house; host or cells: E. coli BL21 Star (DE3) / BL21 Tuner (DE3)
T2 sequence (O28751 1-192): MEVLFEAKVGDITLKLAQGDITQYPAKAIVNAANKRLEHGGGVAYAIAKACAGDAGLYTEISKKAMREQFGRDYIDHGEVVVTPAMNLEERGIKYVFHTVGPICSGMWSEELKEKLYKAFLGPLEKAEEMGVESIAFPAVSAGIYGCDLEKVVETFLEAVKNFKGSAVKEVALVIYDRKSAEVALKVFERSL
Experimental: Nucleotide binding assays were performed using isothermal calorimetry (ITC) on a ITC200 (Microcal) at 25°C. Protein was buffer exchanged using PD10 columns (GE Healthcare) into 50 mM Tris pH 7.5; 150 mM NaCl and 1 mM TCEP. Nucleotides were resuspended in ITC buffer and their concentration were determined through absorbance at 260 nm. Macro-domain proteins were used at 50 µM concentration, whereas the nucleotides were used at 500 µM. ITC measurements were performed by 20 successive injections of 2 µl of the nucleotides into 280 µl of AF1521 with a duration of 4 seconds and 150 seconds of spacing. Data analysis was done using the software ORIGIN 7.0 (Microcal).

[3] = target: T3, GST-tagged macro-domain protein (Archaeoglobus fulgidus, UniProt O28751); assay: Titration curve: competition with biotinylated ADP-ribose for binding to the macro-domain protein (luminescence signal); settings: rising concentration of competitor against biotinylated ADP-ribose
T3 construct: For the N-terminal GST fusion of AF1521 the gene for residues 1-192 was synthesized; made in house; host or cells: E. coli BL21 Star (DE3) / BL21 Tuner (DE3)
T3 sequence (O28751 1-192): T2 sequence (O28751 1-192)
Experimental: After that 2 µl of an acetylated peptide (final concentration of 10 µM) mixed with NAD^+ (final concentration of 500 µM, dissolved in assay buffer 1) and 2 µl of SIRT enzyme (final concentration of 20 nM for 1x SIRT (100% CTL) and 200 nM for 10x SIRT (1000% CTL), dissolved in assay buffer 1) are added by a Multidrop combi. After an incubation time of 20 min at room temperature 4 µl biotinylated ADP-ribose (final concentration 50 nM, dissolved in assay buffer 2) and 4 µl GST tagged macro-domain protein (final concentration 50 nM, dissolved in assay buffer 2) are added by a Multidrop combi. After another incubation time of 60 min at room temperature 4 µl of acceptor beads and 4 µl of donor beads (final concentration of each bead-type 20 µg/ml, both dissolved in assay buffer 2) are added by a Multidrop combi. The plates are then sealed and incubated in the dark at room temperature for at least 30 min. After the incubation period, the plates are measured using the Envision reader from Perkin Elmer.
Assay was performed as described in example 4 (general SOP) besides the fact that instead of ADP-ribose 2'/3'-O-acetyl-ADP-ribose was used for the titration curve.
Assay was performed as described in example 4 (general SOP) employing non-biotinylated ADP-ribose for the titration curve.

[4] = ITC at 25°C, protein 50 µM, nucleotide 500 µM, read-out: KD

Cc1ccc(C(=O)Nc2ccc(S(=O)(=O)O)c3cc(S(=O)(=O)O)cc(S(=O)(=O)O)c23)cc1NC(=O)c1cccc(NC(=O)Nc2cccc(C(=O)Nc3cc(C(=O)Nc4ccc(S(=O)(=O)O)c5cc(S(=O)(=O)O)cc(S(=O)(=O)O)c45)ccc3C)c2)c1 [Suramin]
amount of generated 2'/3'-O-acetyl-ADP-ribose [1]: reduces the amount of generated 2'/3'-O-acetyl-ADP-ribose

Nc1ncnc2c1ncn2[C@@H]1O[C@H](COP(=O)(O)OP(=O)(O)OC[C@@H](O)[C@@H](O)[C@@H](O)C=NOCC(=O)NCCOCCOCCOCCOCCNC(=O)CCCC[C@@H]2SC[C@@H]3NC(=O)N[C@@H]32)[C@@H](O)[C@H]1O [biotinylated ADP-ribose]
-TΔS ([2]; ITC at 25°C): 0.383 kcal/mol | Kd [2, 4]: 2550 nM | Kd ([2]; ITC, read-out: KD value): 2500 nM | ΔG ([2]; ITC at 25°C): -7.64 kcal/mol | ΔS ([2]; ITC at 25°C): -1,3 cal/mol/K

O=C(Nc1nccs1)c1cccc2ccc(-c3cccc(OC4CCNCC4)c3)nc12 [EX00001253]
amount of generated 2'/3'-O-acetyl-ADP-ribose [1]: reduces the amount of generated 2'/3'-O-acetyl-ADP-ribose

Nc1ncnc2c1ncn2[C@@H]1O[C@H](COP(=O)(O)OP(=O)(O)OC[C@H]2OC(O)[C@H](O)[C@@H]2O)[C@@H](O)[C@H]1O (some centres unmarked) [ADP-ribose]
luminescence signal [3]: the luminescence signal decreases

CC(=O)O[C@@H]1[C@@H](COP(=O)(O)OP(=O)(O)OC[C@H]2O[C@@H](n3cnc4c(N)ncnc43)[C@H](O)[C@@H]2O)OC(O)[C@@H]1O (some centres unmarked) [acetyl ADP-ribose, 2'/3'-O-acetyl-ADP-ribose]
-TΔS ([2]; ITC at 25°C): -2.271 kcal/mol | Kd [2, 4]: 4140 nM | ΔG ([2]; ITC at 25°C): -7.339 kcal/mol | ΔH ([2]; change in enthalpy, ITC at 25°C): -5.07 kcal/mol | ΔS ([2]; ITC at 25°C): 7,63 cal/mol/K | luminescence signal [3]: the luminescence signal decreases
